Results: ChEMBL document CHEMBL4507327 (2021)

What was measured:
[1] = target: T1, Alpha-1A adrenergic receptor (Homo sapiens) (UniProt P35348); assay: Inhibition of Adrenergic alpha1A at compound concentration of 10.0 uM in the Eurofins-Panlabs radioligand binding assay (Eurofins_assay_203110); parameters: ligand concentration 0.25 nM; conditions: Rattus norvegicus; Compound concentration 10.0 uM
T1 sequence (whole entry): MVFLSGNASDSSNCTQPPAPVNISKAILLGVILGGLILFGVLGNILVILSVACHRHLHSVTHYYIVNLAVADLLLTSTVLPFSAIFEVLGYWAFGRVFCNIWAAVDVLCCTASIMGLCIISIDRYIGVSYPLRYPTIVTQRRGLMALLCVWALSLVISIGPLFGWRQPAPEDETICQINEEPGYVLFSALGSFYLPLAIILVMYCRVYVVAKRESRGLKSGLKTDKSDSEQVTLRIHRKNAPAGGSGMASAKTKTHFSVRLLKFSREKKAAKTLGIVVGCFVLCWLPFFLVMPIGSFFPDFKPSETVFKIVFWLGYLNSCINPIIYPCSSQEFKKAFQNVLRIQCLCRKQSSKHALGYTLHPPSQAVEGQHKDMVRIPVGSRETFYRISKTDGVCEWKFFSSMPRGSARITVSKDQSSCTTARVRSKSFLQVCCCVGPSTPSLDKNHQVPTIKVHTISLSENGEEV

[2] = target: Serine/threonine-protein kinase RIO2 (Homo sapiens, UniProt Q9BVS4); assay: RIOK2(RIO2LGF1) Takeda global kinase panel
[3] = target: Protein kinase C alpha type (Homo sapiens, UniProt P17252); assay: PKCalpha(PRKALGY1) Takeda global kinase panel
[4] = target: Serine/threonine-protein kinase Nek3 (Homo sapiens, UniProt P51956); assay: Nek3(NEK3LGRI) Takeda global kinase panel
[5] = target: T2, 5-hydroxytryptamine receptor 3A (Homo sapiens) (UniProt P46098); assay: Inhibition of Serotonin (5-Hydroxytryptamine) 5-HT3 at 10 µM in the Eurofins-Panlabs radioligand binding assay (Eurofins_assay_271910); parameters: ligand concentration 0.69 nM; conditions: Compound concentration 10.0 uM
T2 sequence (whole entry): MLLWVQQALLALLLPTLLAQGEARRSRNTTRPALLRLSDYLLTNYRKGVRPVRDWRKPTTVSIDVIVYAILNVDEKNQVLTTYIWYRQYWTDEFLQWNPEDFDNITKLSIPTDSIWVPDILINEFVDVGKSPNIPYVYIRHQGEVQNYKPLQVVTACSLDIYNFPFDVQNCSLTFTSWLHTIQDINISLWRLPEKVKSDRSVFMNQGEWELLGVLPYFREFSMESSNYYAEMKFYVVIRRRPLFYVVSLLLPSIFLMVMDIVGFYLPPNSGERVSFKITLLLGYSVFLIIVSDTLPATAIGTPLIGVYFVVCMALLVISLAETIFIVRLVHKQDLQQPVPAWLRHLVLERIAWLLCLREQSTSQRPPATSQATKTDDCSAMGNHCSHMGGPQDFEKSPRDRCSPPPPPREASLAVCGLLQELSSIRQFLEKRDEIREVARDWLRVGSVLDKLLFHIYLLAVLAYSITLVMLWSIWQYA

[6] = target: Insulin receptor (Homo sapiens, UniProt P06213); assay: InSR(INSRLGY1) Takeda global kinase panel
[7] = target: D(2) dopamine receptor (Homo sapiens) (UniProt P14416); conditions: Compound concentration 10.0 uM
Chain of D(2) dopamine receptor (Homo sapiens) (P14416 whole entry): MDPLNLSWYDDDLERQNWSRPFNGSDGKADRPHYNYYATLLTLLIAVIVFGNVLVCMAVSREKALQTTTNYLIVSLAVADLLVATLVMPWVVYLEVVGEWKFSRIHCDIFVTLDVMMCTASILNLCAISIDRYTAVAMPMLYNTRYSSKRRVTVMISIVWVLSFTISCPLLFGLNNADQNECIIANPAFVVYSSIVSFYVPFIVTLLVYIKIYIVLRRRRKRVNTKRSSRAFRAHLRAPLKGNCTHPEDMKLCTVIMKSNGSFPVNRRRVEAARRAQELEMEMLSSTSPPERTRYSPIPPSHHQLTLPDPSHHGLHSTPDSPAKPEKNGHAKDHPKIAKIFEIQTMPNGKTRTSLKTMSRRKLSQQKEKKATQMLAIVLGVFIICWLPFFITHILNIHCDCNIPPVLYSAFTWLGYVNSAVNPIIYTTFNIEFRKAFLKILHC

[8] = target: Beta-2 adrenergic receptor (Homo sapiens) (UniProt P07550); conditions: Compound concentration 10.0 uM
[9] = target: Casein kinase I isoform alpha (Homo sapiens, UniProt P48729); assay: CK1alpha(C1A1PHY1) Takeda global kinase panel
[10] = target: Myotonin-protein kinase (Homo sapiens, UniProt Q09013); assay: DMPK(DMPKLGF1) Takeda global kinase panel
[11] = target: Serine/threonine-protein kinase H1 (Homo sapiens, UniProt P11801); assay: PSKH1(PSH1LGRH) Takeda global kinase panel
Chain of Serine/threonine-protein kinase H1 (P11801 whole entry): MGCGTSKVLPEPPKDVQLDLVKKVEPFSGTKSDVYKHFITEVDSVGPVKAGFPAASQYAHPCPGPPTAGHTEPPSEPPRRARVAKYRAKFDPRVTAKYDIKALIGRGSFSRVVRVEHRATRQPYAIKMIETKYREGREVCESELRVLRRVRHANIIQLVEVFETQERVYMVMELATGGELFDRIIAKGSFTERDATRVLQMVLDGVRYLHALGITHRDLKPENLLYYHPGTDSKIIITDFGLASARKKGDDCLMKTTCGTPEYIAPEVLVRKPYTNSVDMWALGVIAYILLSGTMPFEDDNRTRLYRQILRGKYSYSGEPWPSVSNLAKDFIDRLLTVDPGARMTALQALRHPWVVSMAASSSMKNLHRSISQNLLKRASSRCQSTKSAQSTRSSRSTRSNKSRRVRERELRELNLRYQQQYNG

[12] = target: Serine/threonine-protein kinase PLK1 (Homo sapiens, UniProt P53350); assay: PLK1(PLK1LGY1) Takeda global kinase panel
[13] = target: Cyclin-dependent kinase 17 (Homo sapiens, UniProt Q00537); assay: PCTAIRE2(CD17SGS1) Takeda global kinase panel
Chain of Cyclin-dependent kinase 17 (Q00537 whole entry): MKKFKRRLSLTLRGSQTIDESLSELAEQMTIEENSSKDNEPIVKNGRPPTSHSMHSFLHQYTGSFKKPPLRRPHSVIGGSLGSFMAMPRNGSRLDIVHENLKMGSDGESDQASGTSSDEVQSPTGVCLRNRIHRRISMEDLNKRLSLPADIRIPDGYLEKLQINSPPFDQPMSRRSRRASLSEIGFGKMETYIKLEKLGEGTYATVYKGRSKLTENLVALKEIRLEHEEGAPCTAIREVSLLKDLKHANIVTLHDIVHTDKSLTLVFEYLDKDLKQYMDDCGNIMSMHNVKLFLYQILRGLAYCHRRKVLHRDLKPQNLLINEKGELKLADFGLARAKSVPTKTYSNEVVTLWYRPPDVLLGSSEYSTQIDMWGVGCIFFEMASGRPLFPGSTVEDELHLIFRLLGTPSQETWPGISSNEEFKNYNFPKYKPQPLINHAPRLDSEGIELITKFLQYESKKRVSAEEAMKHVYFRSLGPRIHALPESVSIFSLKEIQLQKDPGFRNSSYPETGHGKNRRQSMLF

[14] = target: Serine/threonine-protein kinase pim-2 (Homo sapiens, UniProt Q9P1W9); assay: Pim2(PIM2LHY1) Takeda global kinase panel
[15] = target: Protein-tyrosine kinase 2-beta (Homo sapiens, UniProt Q14289); assay: PYK2(PT2BLHF1) Takeda global kinase panel
[16] = target: Bromodomain-containing protein 4 (Homo sapiens, UniProt O60885); assay: BRD4(BRD4LGRC) Takeda global kinase panel
[17] = target: Uncharacterized serine/threonine-protein kinase SBK3 (Homo sapiens, UniProt P0C264); assay: SgK110(SG10LGF1) Takeda global kinase panel
[18] = target: Dual specificity protein kinase CLK1 (Homo sapiens, UniProt P49759); assay: CLK1(CLK1LGF1) Takeda global kinase panel
[19] = target: Tyrosine-protein kinase Srms (Homo sapiens, UniProt Q9H3Y6); assay: Srm(SRMSLGY1) Takeda global kinase panel
Chain of Tyrosine-protein kinase Srms (Q9H3Y6 whole entry): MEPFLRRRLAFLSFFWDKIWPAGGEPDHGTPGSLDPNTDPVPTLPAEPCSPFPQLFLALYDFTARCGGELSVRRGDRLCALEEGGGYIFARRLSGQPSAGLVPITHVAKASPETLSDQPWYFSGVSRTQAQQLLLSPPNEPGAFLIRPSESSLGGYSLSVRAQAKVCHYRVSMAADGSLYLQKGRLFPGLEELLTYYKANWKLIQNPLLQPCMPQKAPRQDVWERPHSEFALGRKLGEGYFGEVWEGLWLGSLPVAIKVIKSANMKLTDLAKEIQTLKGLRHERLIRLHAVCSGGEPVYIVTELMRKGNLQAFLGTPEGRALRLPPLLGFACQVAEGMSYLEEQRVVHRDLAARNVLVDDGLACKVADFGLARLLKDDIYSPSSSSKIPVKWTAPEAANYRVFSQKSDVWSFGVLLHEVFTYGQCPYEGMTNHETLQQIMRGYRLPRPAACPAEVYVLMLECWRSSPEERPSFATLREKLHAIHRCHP

[20] = target: Mitogen-activated protein kinase 14 (Homo sapiens, UniProt Q16539); assay: p38alpha(MP14LGI1) Takeda global kinase panel
Chain of Mitogen-activated protein kinase 14 (Q16539 whole entry): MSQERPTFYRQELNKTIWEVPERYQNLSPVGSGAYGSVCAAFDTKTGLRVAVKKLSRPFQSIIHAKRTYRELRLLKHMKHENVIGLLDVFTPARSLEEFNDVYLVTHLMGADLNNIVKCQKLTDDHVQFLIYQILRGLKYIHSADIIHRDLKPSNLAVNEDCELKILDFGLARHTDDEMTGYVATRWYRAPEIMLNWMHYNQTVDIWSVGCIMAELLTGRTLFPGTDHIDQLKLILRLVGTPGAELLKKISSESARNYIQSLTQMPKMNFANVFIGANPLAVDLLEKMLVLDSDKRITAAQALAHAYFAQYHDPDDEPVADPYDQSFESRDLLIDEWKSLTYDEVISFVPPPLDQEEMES

[21] = target: Dual specificity tyrosine-phosphorylation-regulated kinase 1B (Homo sapiens, UniProt Q9Y463); assay: DYRK1B(DY1BLHY1) Takeda global kinase panel
[22] = target: Microtubule-associated serine/threonine-protein kinase 1 (Homo sapiens, UniProt Q9Y2H9); assay: MAST1(MAS1LGE5) Takeda global kinase panel
Chain of Microtubule-associated serine/threonine-protein kinase 1 (Q9Y2H9 whole entry): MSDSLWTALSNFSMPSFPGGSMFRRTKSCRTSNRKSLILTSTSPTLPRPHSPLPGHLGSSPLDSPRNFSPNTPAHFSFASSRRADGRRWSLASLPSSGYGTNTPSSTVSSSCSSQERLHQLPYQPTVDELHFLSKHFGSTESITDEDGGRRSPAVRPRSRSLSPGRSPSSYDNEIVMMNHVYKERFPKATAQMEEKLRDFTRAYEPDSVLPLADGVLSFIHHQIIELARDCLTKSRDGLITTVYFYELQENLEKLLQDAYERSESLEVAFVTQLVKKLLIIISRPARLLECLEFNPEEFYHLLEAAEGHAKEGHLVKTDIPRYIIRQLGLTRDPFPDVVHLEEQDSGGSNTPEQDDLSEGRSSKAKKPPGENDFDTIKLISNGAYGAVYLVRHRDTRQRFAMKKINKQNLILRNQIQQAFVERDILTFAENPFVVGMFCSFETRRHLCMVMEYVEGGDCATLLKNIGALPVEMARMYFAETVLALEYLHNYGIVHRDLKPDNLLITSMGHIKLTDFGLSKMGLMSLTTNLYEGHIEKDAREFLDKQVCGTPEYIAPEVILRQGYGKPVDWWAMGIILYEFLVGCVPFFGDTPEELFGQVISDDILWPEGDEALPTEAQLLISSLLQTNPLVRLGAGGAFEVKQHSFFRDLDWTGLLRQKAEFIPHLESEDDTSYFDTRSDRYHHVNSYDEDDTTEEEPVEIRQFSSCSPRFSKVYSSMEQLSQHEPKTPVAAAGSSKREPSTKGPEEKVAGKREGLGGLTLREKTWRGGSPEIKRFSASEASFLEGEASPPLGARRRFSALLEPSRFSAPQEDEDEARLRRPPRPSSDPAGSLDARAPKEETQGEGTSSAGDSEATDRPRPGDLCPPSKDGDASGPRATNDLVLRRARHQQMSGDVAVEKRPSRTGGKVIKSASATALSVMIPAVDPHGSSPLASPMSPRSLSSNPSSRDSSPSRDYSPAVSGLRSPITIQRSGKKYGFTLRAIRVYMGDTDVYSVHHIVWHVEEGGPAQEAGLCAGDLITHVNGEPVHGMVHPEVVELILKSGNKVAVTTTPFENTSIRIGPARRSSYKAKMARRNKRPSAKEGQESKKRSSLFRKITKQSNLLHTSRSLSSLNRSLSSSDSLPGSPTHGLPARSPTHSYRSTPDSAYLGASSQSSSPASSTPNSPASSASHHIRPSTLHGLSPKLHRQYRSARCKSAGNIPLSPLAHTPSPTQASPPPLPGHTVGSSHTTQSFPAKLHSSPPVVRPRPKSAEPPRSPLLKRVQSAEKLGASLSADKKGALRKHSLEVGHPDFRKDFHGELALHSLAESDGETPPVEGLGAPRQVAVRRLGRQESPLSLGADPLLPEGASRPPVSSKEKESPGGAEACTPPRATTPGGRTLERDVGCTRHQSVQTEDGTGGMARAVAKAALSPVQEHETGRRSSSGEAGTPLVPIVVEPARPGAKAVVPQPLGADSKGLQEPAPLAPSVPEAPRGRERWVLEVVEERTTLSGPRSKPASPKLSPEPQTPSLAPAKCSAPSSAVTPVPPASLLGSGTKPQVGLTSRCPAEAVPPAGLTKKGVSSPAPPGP

[23] = target: Cyclin-dependent kinase 3 (Homo sapiens, UniProt Q00526); assay: CDK3(CDK3CGS1) Takeda global kinase panel
[24] = target: Dual specificity tyrosine-phosphorylation-regulated kinase 4 (Homo sapiens, UniProt Q9NR20); assay: DYRK4(DYR4LHY1) Takeda global kinase panel
[25] = target: Serine/threonine-protein kinase 4 (Homo sapiens, UniProt Q13043); assay: MST1(STK4LGF1) Takeda global kinase panel
[26] = target: Ribosomal protein S6 kinase alpha-4 (Homo sapiens, UniProt O75676); assay: MSK2(R6A4LGRJ) Takeda global kinase panel
Chain of Ribosomal protein S6 kinase alpha-4 (O75676 whole entry): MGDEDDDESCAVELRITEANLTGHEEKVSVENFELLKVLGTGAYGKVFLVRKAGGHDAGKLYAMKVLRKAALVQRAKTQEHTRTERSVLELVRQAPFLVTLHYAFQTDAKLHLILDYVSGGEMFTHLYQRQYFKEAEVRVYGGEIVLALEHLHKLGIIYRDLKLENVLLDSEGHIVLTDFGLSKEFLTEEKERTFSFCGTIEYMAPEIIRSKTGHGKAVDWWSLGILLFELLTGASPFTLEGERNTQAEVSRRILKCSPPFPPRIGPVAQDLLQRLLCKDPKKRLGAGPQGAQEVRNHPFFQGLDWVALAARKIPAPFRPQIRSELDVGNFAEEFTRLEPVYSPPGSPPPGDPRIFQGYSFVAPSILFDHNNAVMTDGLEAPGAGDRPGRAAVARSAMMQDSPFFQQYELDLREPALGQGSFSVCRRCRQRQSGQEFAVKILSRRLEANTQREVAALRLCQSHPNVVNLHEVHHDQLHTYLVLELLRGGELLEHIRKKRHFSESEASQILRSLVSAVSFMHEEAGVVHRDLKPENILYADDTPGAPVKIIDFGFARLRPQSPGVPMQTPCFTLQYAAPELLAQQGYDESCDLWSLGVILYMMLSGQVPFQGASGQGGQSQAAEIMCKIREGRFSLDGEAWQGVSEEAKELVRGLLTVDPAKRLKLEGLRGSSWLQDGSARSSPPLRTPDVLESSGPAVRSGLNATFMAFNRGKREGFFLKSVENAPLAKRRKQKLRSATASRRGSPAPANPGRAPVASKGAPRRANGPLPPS

[27] = target: Adenosine receptor A2a (Homo sapiens) (UniProt P29274); conditions: Compound concentration 10.0 uM
[28] = target: Casein kinase I isoform alpha-like (Homo sapiens, UniProt Q8N752); assay: CK1alpha2(C1ALLGI5) Takeda global kinase panel
[29] = target: Dual specificity mitogen-activated protein kinase kinase 1 (Homo sapiens, UniProt Q02750); assay: MEK1 [MAP2K1(M2K1LGF1)] Takeda global kinase panel
[30] = target: Tyrosine-protein kinase Blk (Homo sapiens, UniProt P51451); assay: BLK(BLK1CGF1) Takeda global kinase panel
[31] = target: G protein-coupled receptor kinase 3 (Homo sapiens, UniProt P35626); assay: BARK2 [GRK3(ADR2LGG5)] Takeda global kinase panel
[32] = target: Cyclin-dependent kinase 5 (Homo sapiens, UniProt Q00535); assay: CDK5(CDK5CGS1) Takeda global kinase panel
Chain of Cyclin-dependent kinase 5 (Q00535 whole entry): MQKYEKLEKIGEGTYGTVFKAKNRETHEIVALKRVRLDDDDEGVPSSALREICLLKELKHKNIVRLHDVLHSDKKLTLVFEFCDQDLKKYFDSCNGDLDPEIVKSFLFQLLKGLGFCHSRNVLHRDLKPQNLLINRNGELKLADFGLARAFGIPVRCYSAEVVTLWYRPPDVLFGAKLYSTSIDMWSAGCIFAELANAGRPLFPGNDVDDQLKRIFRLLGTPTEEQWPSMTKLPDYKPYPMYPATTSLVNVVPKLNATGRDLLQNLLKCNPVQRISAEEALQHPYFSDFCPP

| Structure (SMILES) | inhibition [1] [%] | IC50 [2] [nM] | IC50 [3] [nM] | IC50 [4] [nM] | inhibition [5] [%] | IC50 [6] [nM] | inhibition [7] [%] | inhibition [8] [%] | IC50 [9] [nM] | IC50 [10] [nM] | IC50 [11] [nM] | IC50 [12] [nM] | IC50 [13] [nM] | IC50 [14] [nM] | IC50 [15] [nM] | IC50 [16] [nM] | IC50 [17] [nM] | IC50 [18] [nM] | IC50 [19] [nM] | IC50 [20] [nM] | other results |
| --- | --- | --- | --- | --- | --- | --- | --- | --- | --- | --- | --- | --- | --- | --- | --- | --- | --- | --- | --- | --- | --- |
| CN1C(=O)[C@@H](N2CCc3cn(Cc4ccccc4)nc3C2=O)COc2ccccc21 [TP-030-1] | -1 | 1000 | 1000 | 1000 | 6 | 1000 | 7 | -4 | 1000 | 1000 | 1000 | 1000 | 1000 | 1000 | 1000 | 1000 | 1000 | 1000 | 1000 | 1000 | IC50 [21]: 1000 nM; IC50 [22]: 1000 nM; IC50 [23]: 1000 nM; IC50 [24]: 1000 nM; IC50 [25]: 1000 nM; IC50 [26]: 1000 nM; inhibition [27]: 10%; IC50 [28]: 1000 nM; IC50 [29]: 1000 nM; IC50 [30]: 1000 nM; IC50 [31]: 1000 nM; IC50 [32]: 1000 nM |
| CN1C(=O)[C@@H](N2CCc3cn(CC4CCS(=O)(=O)CC4)nc3C2=O)COc2ccccc21 [TP-030n] | 1 | 1000 | 1000 | 1000 | 16 | 1000 | 2 | 4 | 1000 | 1000 | 1000 | 1000 | 1000 | 1000 | 1000 | 1000 | 1000 | 1000 | 1000 | 1000 | IC50 [21]: 1000 nM; IC50 [22]: 1000 nM; IC50 [23]: 1000 nM; IC50 [24]: 1000 nM; IC50 [25]: 1000 nM; IC50 [26]: 1000 nM; inhibition [27]: -8%; IC50 [28]: 1000 nM; IC50 [29]: 1000 nM; IC50 [30]: 1000 nM; IC50 [31]: 1000 nM; IC50 [32]: 1000 nM |
